Test results as given in publication PMC8002452, “Molecular Basis of AmpC β-Lactamase Induction by Avibactam in Pseudomonas aeruginosa: PBP Occupancy, Live Cell Binding Dynamics and Impact on Resistant Clinical Isolates Harboring PDC-X Variants” (International Journal of Molecular Sciences, 2021).

Legend:
[1] = system: ampC mRNA in wild-type PAO1; assay: qRT-PCR quantification of AmpC induction; type: cell-based, P. aeruginosa; conditions: IPM 8, FOX 64, AVI 16 µg/mL, relative to strain basal t=0
Method: (§1) Samples were taken at 0, 30 and 180 min. Total RNA was extracted with the RNeasy Mini Kit (Qiagen, Hilden, Germany) and treated with TURBO DNase (Thermo Fisher Scientific, Waltham, MA, USA) to remove contaminating DNA. Samples were afterwards normalized to 50 ng/µL.
(§2) Normalized samples were then used for one-step reverse transcription and real-time PCR amplification using the QuantiTect SYBR green qRT-PCR kit (Qiagen, Hilden, Germany) in a CFX Connect Real-Time PCR System (Bio-Rad, Hercules, California, USA). Previously described primer pairs ACrnaF/ACrnaR and rpsL-1/rpsL-2 were used for the amplification of ampC and housekeeping gene rpsL, respectively. The mean values of relative mRNA expression (2^−ΔΔCt) obtained from at least two independent biological replicates and duplicate technical replicates were considered.

[2] = system: ampC mRNA in 109-E9 (CAZ/AVI-sensitive ST175 clinical isolate); assay: qRT-PCR quantification of AmpC induction; type: cell-based, P. aeruginosa; conditions: IPM 8, FOX 64, AVI 16 µg/mL, relative to strain basal t=0
Method: as §1, §2

[3] = system: ampC mRNA in 110-G8 (AmpC DelG229–E247; PDC-223, CAZ/AVI-resistant ST175 clinical isolate); assay: qRT-PCR quantification of AmpC induction; type: cell-based, P. aeruginosa; conditions: IPM 8, FOX 64, AVI 16 µg/mL, relative to strain basal t=0
Method: as §1, §2

PBP4 [4] = target: T1, PBP4 (Pseudomonas aeruginosa, UniProt Q9HZG1); assay: Isolated PBP-containing membranes time-course binding assay; parameters: species or system P. aeruginosa PAO1; conditions: isolated PAO1 membranes, 4 µg/mL avibactam, 15-60 min; read-out: PBP4 total fraction bound
Method: (§3) Figure 2 Time-course of intact cells and isolated PBP-binding assay. P. aeruginosa PAO1 cultures (a) and isolated PBP-containing membrane preparations (b) were incubated for 15, 30 and 60 min in the presence of 4 µg/mL avibactam (AVI). After isolating PBP-containing membranes, preparations were labeled with 25 µM bocillin FL. The graphs represent the PBP fraction unbound relative to each time control over time. The mean PBP fraction unbound values from at least three independent experiments ± standard deviations are shown.
(§4) In parallel to the aforementioned assay, we performed analogous experiments in which isolated PBP-containing membrane preparations instead of intact cells were pre-exposed to avibactam. Briefly, membrane preparations containing PBPs were obtained by following previously described protocols and were incubated for 15, 30 and 60 min at 37 °C in the presence of 4 µg/mL avibactam and were afterwards labeled with bocillin FL (25 μM). Determination of the PBP fraction unbound was performed as described in the above section.

PBP5/6 [5] = target: T2, PBP5/6 (Pseudomonas aeruginosa, UniProt G3XD74); assay: as above; parameters: species or system P. aeruginosa PAO1; conditions: isolated PAO1 membranes, 4 µg/mL avibactam, 15-60 min; read-out: PBP5/6 total fraction bound
Method: as §3, §4

PBP4 [6] = target: T1, PBP4; assay: PBP-binding affinity (IC50), bocillin FL, isolated membranes; parameters: species or system P. aeruginosa PAO1; conditions: PAO1 membranes 0.5 mg/mL, 30 min, 25 µM bocillin FL; read-out: Mean IC50 ± SD, PBP 4 (converted)
Method: (§5) PBP-binding affinity was determined using previously described methods. Briefly, P. aeruginosa PAO1 cultures grown to the midexponential phase (7.6 log10 CFU/mL) were incubated in CAMHB at 37 °C and 180 rpm, washed and centrifuged (3220× g for 10 min at 4 °C). Bacterial pellets were washed in 30 mL of PBS buffer (pH 7.5), resuspended in 10 mL of PBS and sonicated at 40% amplitude for three 2 min bursts (while immersed in an ice bath) and centrifuged at 3220× g for 15 min at 4 °C. PBP-containing membranes were isolated by ultracentrifugation at 150,000× g for 30 min at 4 °C. Total protein concentrations were measured through the Bradford method.
(§6) Subsequently, the fluorescent penicillin bocillin FL was added to a 25 μM final concentration. Labeled PBPs were denatured and separated through 4–15% SDS–polyacrylamide gel electrophoresis. Labeled PBPs were visualized using a Typhoon FLA 9500 biomolecular imager (GE Healthcare Bio-Sciences AB, Uppsala, Sweden) (excitation at 488 nm and emission at 530 nm), and binding was determined from at least three independent experiments using ImageQuant TL software v8.1.0.0 (GE Healthcare Bio-Sciences AB, Uppsala, Sweden).

PBP1b = PBP1b (Pseudomonas aeruginosa, UniProt G3XD31); assay: as above; parameters: species or system P. aeruginosa PAO1; conditions: PAO1 membranes 0.5 mg/mL, 30 min, 25 µM bocillin FL; read-out: Mean IC50 ± SD, PBP 1b (converted)
Method: as §5, §6

PBP5/6 [7] = target: T2, PBP5/6; assay: as above; parameters: species or system P. aeruginosa PAO1; conditions: PAO1 membranes 0.5 mg/mL, 30 min, 25 µM bocillin FL; read-out: Mean IC50 ± SD, PBP 5/6 (converted)
Method: as §5, §6

PBP2 = target: T3, PBP2 (Pseudomonas aeruginosa, UniProt Q9X6V3); assay: as above; parameters: species or system P. aeruginosa PAO1; conditions: PAO1 membranes 0.5 mg/mL, 30 min, 25 µM bocillin FL; read-out: Mean IC50 ± SD, PBP 2 (converted)
T3 construct: PBP-containing membranes were isolated by ultracentrifugation; endogenous in cells; host or cells: P. aeruginosa PAO1 wild type (membrane preparations or intact cells)
Method: as §5, §6

PBP1a = target: T4, PBP1a (Pseudomonas aeruginosa, UniProt Q07806); assay: as above; parameters: species or system P. aeruginosa PAO1; conditions: PAO1 membranes 0.5 mg/mL, 30 min, 25 µM bocillin FL
T4 construct: PBP-containing membranes were isolated by ultracentrifugation; endogenous in cells; host or cells: P. aeruginosa PAO1 wild type (membrane preparations or intact cells)
Method: as §5, §6

T1 sequence (Q9HZG1 entry or part of it): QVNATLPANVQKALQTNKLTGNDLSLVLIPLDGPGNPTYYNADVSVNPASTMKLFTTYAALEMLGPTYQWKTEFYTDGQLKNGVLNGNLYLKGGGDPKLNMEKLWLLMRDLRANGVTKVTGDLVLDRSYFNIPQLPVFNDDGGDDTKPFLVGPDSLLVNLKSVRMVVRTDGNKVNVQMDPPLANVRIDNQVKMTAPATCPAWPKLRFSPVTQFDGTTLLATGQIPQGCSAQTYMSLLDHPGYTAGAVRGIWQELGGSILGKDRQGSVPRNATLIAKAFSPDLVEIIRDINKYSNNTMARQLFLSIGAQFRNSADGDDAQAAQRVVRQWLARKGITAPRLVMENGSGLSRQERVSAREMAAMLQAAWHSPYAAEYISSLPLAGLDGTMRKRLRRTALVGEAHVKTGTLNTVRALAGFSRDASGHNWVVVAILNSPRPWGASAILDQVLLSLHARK
T4 sequence (Q07806 whole entry): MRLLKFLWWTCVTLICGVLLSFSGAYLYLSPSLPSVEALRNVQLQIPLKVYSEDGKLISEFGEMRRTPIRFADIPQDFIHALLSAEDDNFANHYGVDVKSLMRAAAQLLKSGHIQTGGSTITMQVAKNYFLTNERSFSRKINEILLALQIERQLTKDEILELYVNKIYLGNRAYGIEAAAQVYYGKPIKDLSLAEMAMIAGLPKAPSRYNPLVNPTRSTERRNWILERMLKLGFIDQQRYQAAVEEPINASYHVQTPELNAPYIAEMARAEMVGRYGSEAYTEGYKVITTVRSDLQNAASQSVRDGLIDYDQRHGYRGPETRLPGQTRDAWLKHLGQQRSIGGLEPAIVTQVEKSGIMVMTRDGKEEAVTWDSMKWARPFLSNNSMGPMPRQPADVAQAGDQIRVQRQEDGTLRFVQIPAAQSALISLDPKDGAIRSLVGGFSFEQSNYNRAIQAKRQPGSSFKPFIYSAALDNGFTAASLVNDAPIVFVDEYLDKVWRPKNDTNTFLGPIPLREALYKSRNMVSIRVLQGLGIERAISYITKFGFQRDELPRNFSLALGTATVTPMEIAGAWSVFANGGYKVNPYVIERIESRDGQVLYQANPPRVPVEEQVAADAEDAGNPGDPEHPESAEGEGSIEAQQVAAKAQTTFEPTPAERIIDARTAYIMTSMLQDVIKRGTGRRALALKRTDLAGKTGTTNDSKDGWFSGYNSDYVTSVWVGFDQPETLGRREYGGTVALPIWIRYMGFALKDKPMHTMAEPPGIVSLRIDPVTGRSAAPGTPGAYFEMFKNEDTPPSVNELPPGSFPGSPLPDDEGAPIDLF
T2 sequence (G3XD74 entry or part of it): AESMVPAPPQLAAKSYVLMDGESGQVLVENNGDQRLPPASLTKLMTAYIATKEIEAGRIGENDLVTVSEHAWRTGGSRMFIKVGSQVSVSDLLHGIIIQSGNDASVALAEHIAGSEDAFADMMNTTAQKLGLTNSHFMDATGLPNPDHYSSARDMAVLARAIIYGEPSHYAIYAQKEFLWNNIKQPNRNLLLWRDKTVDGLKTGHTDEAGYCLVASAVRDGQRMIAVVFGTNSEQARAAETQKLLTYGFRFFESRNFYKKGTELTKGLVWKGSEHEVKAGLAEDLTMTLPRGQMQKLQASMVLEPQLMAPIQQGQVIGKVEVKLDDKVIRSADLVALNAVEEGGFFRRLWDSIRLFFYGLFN
T3 sequence (Q9X6V3 entry or part of it): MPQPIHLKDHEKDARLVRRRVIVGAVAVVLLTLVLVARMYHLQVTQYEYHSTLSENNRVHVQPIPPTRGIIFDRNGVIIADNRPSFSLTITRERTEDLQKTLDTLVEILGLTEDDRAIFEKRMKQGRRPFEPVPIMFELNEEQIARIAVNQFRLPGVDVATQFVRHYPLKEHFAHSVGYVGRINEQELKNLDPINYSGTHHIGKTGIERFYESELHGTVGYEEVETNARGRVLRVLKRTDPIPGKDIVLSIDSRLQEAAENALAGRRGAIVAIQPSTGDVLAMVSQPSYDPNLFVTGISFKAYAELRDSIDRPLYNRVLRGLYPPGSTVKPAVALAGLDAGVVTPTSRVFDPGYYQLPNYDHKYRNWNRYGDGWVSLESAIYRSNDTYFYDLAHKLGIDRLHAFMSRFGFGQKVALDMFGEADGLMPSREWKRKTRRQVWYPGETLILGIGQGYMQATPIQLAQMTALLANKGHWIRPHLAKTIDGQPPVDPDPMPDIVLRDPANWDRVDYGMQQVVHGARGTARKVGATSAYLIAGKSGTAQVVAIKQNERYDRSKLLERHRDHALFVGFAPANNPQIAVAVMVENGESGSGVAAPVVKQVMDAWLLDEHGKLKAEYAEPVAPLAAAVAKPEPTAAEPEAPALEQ
Chain of PBP1b (G3XD31 entry or part of it): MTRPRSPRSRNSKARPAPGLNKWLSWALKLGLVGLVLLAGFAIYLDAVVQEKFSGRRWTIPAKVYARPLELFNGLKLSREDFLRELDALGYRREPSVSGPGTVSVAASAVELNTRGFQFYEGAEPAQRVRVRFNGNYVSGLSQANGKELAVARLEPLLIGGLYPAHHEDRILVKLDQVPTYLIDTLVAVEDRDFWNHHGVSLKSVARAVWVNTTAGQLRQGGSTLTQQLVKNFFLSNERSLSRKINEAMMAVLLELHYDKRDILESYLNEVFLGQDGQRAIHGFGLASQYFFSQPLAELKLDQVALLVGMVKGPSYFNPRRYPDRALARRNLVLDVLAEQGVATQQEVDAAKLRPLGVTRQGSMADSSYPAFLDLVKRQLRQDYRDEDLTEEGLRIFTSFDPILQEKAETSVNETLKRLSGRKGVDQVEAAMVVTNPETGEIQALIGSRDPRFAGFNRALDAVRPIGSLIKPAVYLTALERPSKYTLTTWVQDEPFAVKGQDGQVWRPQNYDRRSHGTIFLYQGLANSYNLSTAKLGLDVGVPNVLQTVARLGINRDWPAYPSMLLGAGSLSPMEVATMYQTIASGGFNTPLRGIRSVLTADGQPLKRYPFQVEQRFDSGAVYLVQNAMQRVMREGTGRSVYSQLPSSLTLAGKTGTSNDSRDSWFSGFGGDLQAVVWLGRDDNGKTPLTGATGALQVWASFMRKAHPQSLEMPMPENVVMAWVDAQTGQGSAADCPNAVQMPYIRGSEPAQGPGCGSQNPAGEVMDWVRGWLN

Compound: NC(=O)[C@@H]1CC[C@@H]2CN1C(=O)N2OS(=O)(=O)O [Avibactam]
- Relative ampC expression ([1]; PAO1, 0 min): 1.1
- Relative ampC expression ([1]; PAO1, 30 min): 5.8
- Relative ampC expression ([1]; PAO1, 180 min): 60.6 ± 25.2
- Relative ampC expression ([1]; PAO1, 180 min, listed as AVI): 60.6
- Relative ampC expression ([2]; 109-E9, 0 min): 0.9
- Relative ampC expression ([2]; 109-E9, 30 min): 1.5
- Relative ampC expression ([2]; 109-E9, 180 min): 6.2
- Relative ampC expression ([3]; 110-G8, 0 min): 3.3
- Relative ampC expression ([3]; 110-G8, 30 min): 2.6
- Relative ampC expression ([3]; 110-G8, 180 min): 8.7
- inhibition at 4 µg/mL (PBP4 [4]): ≤ 68%
- inhibition at 4 µg/mL (PBP5/6 [5]): ≤ 82%
- IC50 (PBP4 [6]): 11.7 µM
- IC50 (PBP1b): 13.6 µM
- IC50 (PBP5/6 [7]): 8.29 µM
- IC50 (PBP2): 15.8 µM
- Mean IC50 ± SD, PBP 1a (PBP1a): no PBP1a and 3 binding was detected
- IC50 (PBP1a; read-out: Mean IC50 ± SD, PBP 1a (converted)): > 121 µM
